# In patent US8148070B2, “Genetic polymorphisms associated with coronary events and drug response, methods of detection and uses thereof” (Celera Corporation, priority 2007, dated 2012):
# Test system: CARE patients
# Test: CARE trial: pravastatin vs placebo, recurrent MI in subgroups defined by KIF6 (and neighbouring SNP) genotype
# Format: in vivo, human
# Conditions: for HR, Unadjusted (recurrent MI, pravastatin vs placebo): placebo = ref; for OR for minor hom / OR for carrier (Min + Het) / OR for Het / OR for major hom: risk of recurrent MI
# From the text: In order to identify genetic markers associated with CHD (particularly MI, including recurrent MI) or the effect of statin treatment on CHD, samples were genotyped in two clinical trials: the Cholesterol and Recurrent Events (CARE) study (a randomized multicentral double-blinded trial on secondary prevention of MI with pravastatin (Pravachol®); Sacks et al., Am. J. Cardiol. 68: 1436-1446 [1991]), and the West of Scotland Coronary Prevention Study (WOSCOPS) study (a randomized multicentral double-blinded trial on primary prevention of CHD with pravastatin (Pravachol®); Shepherd et al., N Eng J Med 333 (20), pp. 1301-7, Nov. 16, 1995; Packard et al., N Eng J Med 343 (16), pp. 1148-55, Oct. 19, 2000).
# A well-documented MI was one of the enrollment criteria for entry into the CARE study. Patients were enrolled in the CARE trial from 80 participating study centers. […] Patients were randomized to receive either 40 mg of pravastatin once daily or a matching placebo. The primary endpoint of the trial was death from CHD or nonfatal MI and the median duration of follow-up was 5.0 years (range, 4.0 to 6.2 years). For this genetic study of CARE, a composite endpoint comprised of fatal or nonfatal recurrent MI was used.
# For genotyping SNPs in CARE patient samples, DNA was extracted from blood samples using conventional DNA extraction methods such as the QIAamp kit from Qiagen. Genotypes were obtained by a method similar to that described by Iannone (M. A. Iannone et al., Cytometry 39(2):131-140 [Feb. 1, 2000]; also described in section “SNP DETECTION REAGENTS,” supra). Briefly, target DNA was amplified by multiplex PCR, the amplified product was submitted to a multiplex oligo ligation assay (OLA), the specific ligated products were hybridized to unique universal “ZIP code” oligomer sequences covalently attached to Luminex xMAP® Multi-Analyte COOH Microspheres, and these hybridization products/microspheres were detected in a rapid automated multiplex system (Luminex 100 instrument).
# In analyzing the CARE patients, statistical analysis was performed with SAS version 9. Cox proportional hazard models (Wald tests) were used in CARE to assess the association of genotype with both the risk of incident MI in the placebo arm and the effect of pravastatin on MI compared to placebo in subgroups defined by genotypes. In analyzing the WOSCOPS patients, a conditional logistic regression model was used in WOSCOPS given that the controls had been previously matched to the cases. The column entitled “On-trial MI” lists the number of patients who suffered a recurrent MI during the clinical trial period.
# HR stands for Hazard Ratio, which is a concept similar to Odds Ratio (OR). The HR in event-free survival analysis is the effect of an explanatory variable on the hazard or risk of an event. For examples, it describes the likelihood of developing MI based on comparison of rate of coronary events between carriers of the certain allele and noncarriers; therefore, HR=1.5 would mean that carriers of the certain allele have 50% higher risk of coronary events during the study follow up than non-carriers. HR can also describe the effect of statin therapy on coronary events based on comparison of rate of coronary events between patient treated with statin and patient treated with placebo (or other statin) in subgroups defined by SNP genotype; therefore, HR=0.5 would mean that, for example, carriers of the certain allele, had 50% reduction of coronary events by statin therapy as compared to placebo. In Table 6, p interaction values were calculated. An interaction (or effect modification) is formed when a third variable modifies the relation between an exposure and outcome. […] Genotype and drug interaction is present when the effect of statins (incidence rate of disease in statin-treated group, as compared to placebo) differs in patients with different genotypes. The hCV3054799 risk allele predicted risk of MI in CARE and was associated with odds of CHD in WOSCOPS. […]
structure (smiles),measurement,setting,value
"CC[C@H](C)C(=O)O[C@H]1C[C@H](O)C=C2C=C[C@H](C)[C@H](CC[C@@H](O)C[C@@H](O)CC(=O)O)[C@H]21 [Pravastatin, pravastatin]","HR, Adjusted (recurrent MI, pravastatin vs placebo)","AA (noncarriers), adjusted for conventional risk factors",0.80
same,On-trial MI,"AA, of 554 patients in the pravastatin arm",39 number of patients
same,"HR, Adjusted (recurrent MI, pravastatin vs placebo)","GG + GA (719Arg carriers), adjusted for age, smoking, hypertension, diabetes, BMI, LDL-C, HDL-C",0.63
same,On-trial MI,"GG + GA, of 810 patients in the pravastatin arm",64 number of patients
same,"HR, Unadjusted (recurrent MI, pravastatin vs placebo)",KIF6 Trp719Arg AA (noncarriers),0.86
same,"HR, Unadjusted (recurrent MI, pravastatin vs placebo)","KIF6 Trp719Arg GG + GA (719Arg carriers), 40 mg pravastatin once daily",0.63
same,reduction of relative risk of recurrent MI,"carriers of the 719Arg risk allele, pravastatin vs placebo",37%
same,risk reduction (coronary events),"noncarriers, pravastatin vs placebo, insignificant",20%
same,"OR, Effect of Pravastatin on MI and CHD","pravastatin vs placebo, hCV3054808 genotype AA",1.04
same,"OR, Effect of Pravastatin on MI and CHD","pravastatin vs placebo, hCV3054808 genotype AC",0.50
same,"OR, Effect of Pravastatin on MI and CHD","pravastatin vs placebo, hCV3054808 genotype CC",1.01
same,"OR, Effect of Pravastatin on MI and CHD","pravastatin vs placebo, hCV3054813 genotype CC",0.98
same,"OR, Effect of Pravastatin on MI and CHD","pravastatin vs placebo, hCV3054813 genotype CT",0.45
same,"OR, Effect of Pravastatin on MI and CHD","pravastatin vs placebo, hCV3054813 genotype TT",1.06
same,"OR, Effect of Pravastatin on MI and CHD","pravastatin vs placebo, hCV29992177 genotype AA",0.71
same,"OR, Effect of Pravastatin on MI and CHD","pravastatin vs placebo, hCV29992177 genotype GA",0.57
same,"OR, Effect of Pravastatin on MI and CHD","pravastatin vs placebo, hCV29992177 genotype GG",1.88
same,"OR, Effect of Pravastatin on MI and CHD","pravastatin vs placebo, hCV30225864 genotype CC",0.79
same,"OR, Effect of Pravastatin on MI and CHD","pravastatin vs placebo, hCV30225864 genotype CT",0.63
same,"OR, Effect of Pravastatin on MI and CHD","pravastatin vs placebo, hCV30225864 genotype TT",0.73
same,OR for minor hom,"pravastatin vs placebo, hCV792699 CC minor homozygotes",0.8127
same,OR for carrier (Min + Het),"pravastatin vs placebo, hCV792699 CC+CT carriers of minor allele",0.7089
same,OR for Het,"pravastatin vs placebo, hCV792699 CT heterozygotes",0.6534
same,OR for major hom,"pravastatin vs placebo, hCV792699 TT major homozygotes",0.8085
same,OR for major hom,"pravastatin vs placebo, hCV1650850 CC major homozygotes",0.7381
same,OR for Het,"pravastatin vs placebo, hCV1650850 GC heterozygotes",1.7143
same,OR for carrier (Min + Het),"pravastatin vs placebo, hCV1650850 GG+GC carriers of minor allele",1.7143
same,OR for minor hom,"pravastatin vs placebo, hCV3054766 AA minor homozygotes",0.4856
same,OR for carrier (Min + Het),"pravastatin vs placebo, hCV3054766 AA+AC carriers of minor allele",0.6695
same,OR for Het,"pravastatin vs placebo, hCV3054766 AC heterozygotes",0.7705
same,OR for major hom,"pravastatin vs placebo, hCV3054766 CC major homozygotes",0.9847
same,OR for minor hom,"pravastatin vs placebo, hCV3054789 AA minor homozygotes",1.0873
same,OR for carrier (Min + Het),"pravastatin vs placebo, hCV3054789 AA+AT carriers of minor allele",0.8227
same,OR for Het,"pravastatin vs placebo, hCV3054789 AT heterozygotes",0.7597
same,OR for major hom,"pravastatin vs placebo, hCV3054789 TT major homozygotes",0.6567
same,OR for major hom,"pravastatin vs placebo, hCV3054799 AA major homozygotes",0.8639
same,OR for Het,"pravastatin vs placebo, hCV3054799 GA heterozygotes",0.5818
same,OR for minor hom,"pravastatin vs placebo, hCV3054799 GG minor homozygotes",0.9215
same,OR for carrier (Min + Het),"pravastatin vs placebo, hCV3054799 GG+GA carriers of minor allele",0.6442
same,OR for major hom,"pravastatin vs placebo, hCV3054805 CC major homozygotes",0.9323
same,OR for Het,"pravastatin vs placebo, hCV3054805 GC heterozygotes",0.5933
same,OR for minor hom,"pravastatin vs placebo, hCV3054805 GG minor homozygotes",0.9317
same,OR for carrier (Min + Het),"pravastatin vs placebo, hCV3054805 GG+GC carriers of minor allele",0.6653
same,OR for minor hom,"pravastatin vs placebo, hCV3054808 AA minor homozygotes",1.037
same,OR for carrier (Min + Het),"pravastatin vs placebo, hCV3054808 AA+AC carriers of minor allele",0.6257
same,OR for Het,"pravastatin vs placebo, hCV3054808 AC heterozygotes",0.5292
same,OR for major hom,"pravastatin vs placebo, hCV3054808 CC major homozygotes",1.0056
same,OR for minor hom,"pravastatin vs placebo, hCV3054822 AA minor homozygotes",0.852
same,OR for carrier (Min + Het),"pravastatin vs placebo, hCV3054822 AA+AT carriers of minor allele",0.5778
same,OR for Het,"pravastatin vs placebo, hCV3054822 AT heterozygotes",0.5213
same,OR for major hom,"pravastatin vs placebo, hCV3054822 TT major homozygotes",0.9897
same,OR for minor hom,"pravastatin vs placebo, hCV3054829 CC minor homozygotes",0.9021
same,OR for carrier (Min + Het),"pravastatin vs placebo, hCV3054829 CC+CT carriers of minor allele",0.8052
same,OR for Het,"pravastatin vs placebo, hCV3054829 CT heterozygotes",0.783
same,OR for major hom,"pravastatin vs placebo, hCV3054829 TT major homozygotes",0.6064
same,OR for carrier (Min + Het),"pravastatin vs placebo, hCV15876373 CC+CT carriers of minor allele",0.9708
same,OR for Het,"pravastatin vs placebo, hCV15876373 CT heterozygotes",0.8241
same,OR for major hom,"pravastatin vs placebo, hCV15876373 TT major homozygotes",0.6881
same,OR for major hom,"pravastatin vs placebo, hCV29649182 CC major homozygotes",0.7223
same,OR for Het,"pravastatin vs placebo, hCV29649182 TC heterozygotes",0.7631
same,OR for minor hom,"pravastatin vs placebo, hCV29649182 TT minor homozygotes",1.7333
same,OR for carrier (Min + Het),"pravastatin vs placebo, hCV29649182 TT+TC carriers of minor allele",0.7818
same,OR for minor hom,"pravastatin vs placebo, hCV30388472 CC minor homozygotes",0.5175
same,OR for carrier (Min + Het),"pravastatin vs placebo, hCV30388472 CC+CT carriers of minor allele",0.6291
same,OR for Het,"pravastatin vs placebo, hCV30388472 CT heterozygotes",0.6798
same,OR for major hom,"pravastatin vs placebo, hCV30388472 TT major homozygotes",1.0182
same,OR for carrier (Min + Het),"pravastatin vs placebo, hCV30478067 AA+AG carriers of minor allele",0.6875
same,OR for Het,"pravastatin vs placebo, hCV30478067 AG heterozygotes",0.5153
same,OR for major hom,"pravastatin vs placebo, hCV30478067 GG major homozygotes",0.7461
same,OR for carrier (Min + Het),"pravastatin vs placebo, hCV31340487 CC+CT carriers of minor allele",1.1573
same,OR for Het,"pravastatin vs placebo, hCV31340487 CT heterozygotes",1.0761
same,OR for major hom,"pravastatin vs placebo, hCV31340487 TT major homozygotes",0.697
same,OR for carrier (Min + Het),"pravastatin vs placebo, hCV32202303 CC+CG carriers of minor allele",0.5857
same,OR for Het,"pravastatin vs placebo, hCV32202303 CG heterozygotes",0.6208
same,OR for major hom,"pravastatin vs placebo, hCV32202303 GG major homozygotes",0.7655
same,patients who had experienced another MI,"whole pravastatin-treated group, 5 years of follow-up",114 patients
